# According to patent publication US12268781B2, “Sustained-release pharmaceutical compositions comprising a therapeutic agent for treating dementia and uses thereof” (priority 2018, dated 2025):
# Counter-ions that a name gives are not always drawn.
# Key:
# [1] = In vitro release, plasma free system (dialysis bag in PBS); type: physicochemical; conditions: PBS pH 7.4, 37 °C, within 2 hours
# Procedure: (§1) Two in vitro release systems were used in this study, the first system was the plasma free environment and the second system was the human plasma environment. To set up the first in vitro release system, 1.0 mL of liposomal rivastigmine formulation prepared according to Example 1 and 1.0 mL of free rivastigmine tartrate were placed in separate dialysis bags (Spectra/Pro*6 dialysis membrane, MWCO 50 kDa, Spectrum Labs) and both ends of the dialysis bags were sealed. To set up the second in vitro release system, 1.0 mL of liposomal rivastigmine formulation prepared according to Example 1 and 1.0 mL of free rivastigmine tartrate were placed in separate dialysis bags, each containing 1 mL of human plasma (Valley Biomedical, Inc.) and both ends of the dialysis bags were sealed. Each dialysis bag was immersed in 25 mL PBS at pH 7.4 in a 50-mL centrifuge tube and incubated in a water bath at 37±1° C. for 24 hours. At designated time points after incubation (1, 2, 4, 6 and 24 hours), 0.5 mL aliquot from the 25-mL PBS was sampled and 0.5 mL of fresh PBS was added to replace the sampling aliquot. Drug concentrations of the sampling aliquots at each time point were analyzed using high performance liquid chromatography (HPLC) to create the in vitro release profile.
# [2] = PK study of liposomal rivastigmine in rats, subcutaneous injection; type: in vivo, Sprague-Dawley rats
# Procedure: An in vivo PK evaluation of the liposomal rivastigmine formulation was performed using 7-8 weeks old female Sprague-Dawley rats. The rats were housed in a holding room which operated on a 12-hr light/12-hr dark circadian cycle with free access to water and food.
# The rats were divided into two groups (n=3 in each group), one group received subcutaneous injection of 10 mg/kg of free rivastigmine tartrate, prepared by dissolving rivastigmine tartrate in ultrapure water with a final concentration of 2 mg/mL. The other group received subcutaneous injection of 10 mg/kg of liposomal rivastigmine tartrate, prepared according to Example 1. Blood samples were collected at 15 min, 1, 2, 4, 6, 8, 24, 48, and 72 hours post-injection. Plasma samples were obtained by centrifugation, kept frozen at −80° C. and analyzed using a noncompartmental analysis model in PKSolver (Comput Methods Programs Biomed. 2010; 99(3):306-314).
# [3] = In vitro release, human plasma system (dialysis bag in PBS); type: in vitro ADME; conditions: 37 °C, within 4 hours
# Procedure: as §1
# [4] = female, Sprague-Dawley, rat, plasma, sc, single subcutaneous injection 10 mg/kg
smiles,measurement,setting,value
"CCN(C)C(=O)Oc1cccc([C@H](C)N(C)C)c1 [Free Rivastigmine, rivastigmine tartrate]",rivastigmine released through the dialysis bag,[1],one hundred
same,rivastigmine in plasma,"[2]; 8 hours post injection, FIG. 2",undetectable
same,rivastigmine released as indicated by AUC0-t,[2]; 72 hours post-injection,100%
same,AUC(0-inf),[2]; [4],899 ng·h/mL
same,AUC(0-t),[2]; [4],896 ng·h/mL
same,Cmax,[2]; [4],427 ng/mL
same,half-life,"[2]; female, Sprague-Dawley, rat, plasma, sc, single subcutaneous injection 10 mg/kg, read-out: t½ (converted)",55.8 min
same,rivastigmine released,[3],90%
